This is an account of results in patent US6677429B1, “Echinocandin derivatives, preparation method and application as anti-fungal agents” (Aventis Pharma S.A., priority 1997, dated 2004).

T1 sequence (O13428 1-1897): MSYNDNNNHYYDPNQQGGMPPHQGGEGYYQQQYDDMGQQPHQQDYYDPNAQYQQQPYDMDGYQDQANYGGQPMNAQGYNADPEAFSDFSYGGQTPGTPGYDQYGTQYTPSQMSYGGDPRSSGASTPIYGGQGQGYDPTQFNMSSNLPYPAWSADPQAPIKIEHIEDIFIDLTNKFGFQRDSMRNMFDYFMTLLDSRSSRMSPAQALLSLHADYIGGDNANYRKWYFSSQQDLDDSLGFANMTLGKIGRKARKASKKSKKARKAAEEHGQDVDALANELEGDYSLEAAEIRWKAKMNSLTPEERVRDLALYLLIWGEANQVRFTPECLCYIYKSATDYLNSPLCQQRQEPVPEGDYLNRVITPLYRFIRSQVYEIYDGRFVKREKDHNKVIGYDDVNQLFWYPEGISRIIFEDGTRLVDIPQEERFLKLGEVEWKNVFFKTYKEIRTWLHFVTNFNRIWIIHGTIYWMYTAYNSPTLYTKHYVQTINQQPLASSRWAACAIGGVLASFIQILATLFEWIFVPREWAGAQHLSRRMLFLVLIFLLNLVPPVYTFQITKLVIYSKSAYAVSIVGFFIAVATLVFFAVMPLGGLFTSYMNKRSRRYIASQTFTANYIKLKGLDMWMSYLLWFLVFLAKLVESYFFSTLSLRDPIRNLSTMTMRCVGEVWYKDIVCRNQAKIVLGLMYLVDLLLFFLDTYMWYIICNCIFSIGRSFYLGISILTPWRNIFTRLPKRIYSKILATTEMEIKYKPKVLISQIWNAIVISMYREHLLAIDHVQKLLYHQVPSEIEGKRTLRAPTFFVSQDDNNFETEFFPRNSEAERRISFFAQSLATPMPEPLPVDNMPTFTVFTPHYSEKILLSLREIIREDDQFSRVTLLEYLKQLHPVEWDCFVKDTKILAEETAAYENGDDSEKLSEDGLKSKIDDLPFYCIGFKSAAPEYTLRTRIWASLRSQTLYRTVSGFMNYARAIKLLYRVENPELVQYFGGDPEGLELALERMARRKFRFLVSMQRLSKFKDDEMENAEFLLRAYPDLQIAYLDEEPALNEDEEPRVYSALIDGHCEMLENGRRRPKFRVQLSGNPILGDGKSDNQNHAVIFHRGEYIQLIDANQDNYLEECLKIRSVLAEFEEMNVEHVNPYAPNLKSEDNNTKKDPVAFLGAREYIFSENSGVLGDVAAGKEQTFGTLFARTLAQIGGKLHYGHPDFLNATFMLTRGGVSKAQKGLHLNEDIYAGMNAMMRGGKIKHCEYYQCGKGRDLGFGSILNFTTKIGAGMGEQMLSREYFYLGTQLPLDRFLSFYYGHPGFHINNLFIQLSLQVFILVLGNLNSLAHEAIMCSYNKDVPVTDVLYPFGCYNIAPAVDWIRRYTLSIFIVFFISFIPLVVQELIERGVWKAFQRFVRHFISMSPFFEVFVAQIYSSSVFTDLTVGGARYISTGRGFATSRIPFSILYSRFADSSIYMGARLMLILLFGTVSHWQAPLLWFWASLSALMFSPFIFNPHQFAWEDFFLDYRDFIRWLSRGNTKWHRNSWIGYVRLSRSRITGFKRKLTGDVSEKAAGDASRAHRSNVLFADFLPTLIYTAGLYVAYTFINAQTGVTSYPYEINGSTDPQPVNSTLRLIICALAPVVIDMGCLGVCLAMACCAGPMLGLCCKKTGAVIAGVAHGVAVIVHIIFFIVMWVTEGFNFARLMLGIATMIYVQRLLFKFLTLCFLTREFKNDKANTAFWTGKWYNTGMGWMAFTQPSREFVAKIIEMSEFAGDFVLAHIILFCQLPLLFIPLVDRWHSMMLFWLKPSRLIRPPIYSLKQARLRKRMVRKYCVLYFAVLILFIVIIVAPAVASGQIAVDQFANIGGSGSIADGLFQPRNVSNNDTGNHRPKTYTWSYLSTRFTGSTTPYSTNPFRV
T1 sequence (O42825 whole entry partner): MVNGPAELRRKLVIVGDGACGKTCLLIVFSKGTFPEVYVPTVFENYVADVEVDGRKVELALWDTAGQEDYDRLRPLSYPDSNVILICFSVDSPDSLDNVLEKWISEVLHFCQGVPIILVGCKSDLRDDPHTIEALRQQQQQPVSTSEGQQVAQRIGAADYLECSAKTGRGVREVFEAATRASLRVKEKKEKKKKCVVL

The experiment concerns the target T1, Glucane Synthesis of Candida albicans (Candida albicans, UniProt O13428).
T1 construct: 22.5 µg of membrane proteins are incubated in a mixture of 2 Mm of 14C-UDP glucose; endogenous in cells
Nature of the experiment: Inhibition of the Glucane Synthesis of Candida albicans. The settings on record: purified Candida albicans membranes, 14C-UDP glucose, 25° C. for 1 hour, radioactivity on filter counted. The experiment is classed as biochemical. As for the experimental part: A—Inhibition of the Glucane Synthesis of Candida albicans.
The membranes of Candida albicans are purified according to the process described by Tang and al Antimicrob. Agents Chemother 35, 99-103, 1991. 22.5 µg of membrane proteins are incubated in a mixture of 2 Mm of 14C-UDP glucose (specific activity=0.34mCi./mmol, 50 μg of α-amylase, 1Mm of dithiotreitol (DTT), 1Mm EDTA, 100 Mm NaF, 7 μM of GTP-γ-S, 1M of sucrose and 5 oMm OF Ttris-HCL (pH 7.8) in a volume of 100 μl. The medium is incubated at 25° C. for 1 hour and the reaction terminated by addition of TCA to a final concentration of 5%. The reaction medium is transferred onto a pre-humidified glass fibre filter. The filter is washed, dried and its radioactivity is counted.
Mulundocandin is used as positive control.
The control of the medium is carried out with the same quantity of DMSO 1%.
With “(±) Trifluoroacetate of 1-[4-[(Aminoiminomethyl) hydrazono]-N2-(12-methyl-1-oxotetradecyl)-L-ornithine]4-[4-(4-hydroxyphenyl)-L-threonine]-5-L Serine Echinocandin B [Example 11]”, the “Inhibition of the Glucane Synthesis of Candida albicans (activity in this test)” value (from here on “Inhibition”) is on record as “good activity”.

Consider `CCCCCCCCOc1ccc(-c2ccc(C(=O)NC3CC(NCCN)CNC(=O)C4C(O)C(C)CN4C(=O)C(CO)NC(=O)C(C(O)Cc4ccc(O)cc4)NC(=O)C4CC(O)CN4C(=O)C(C(C)O)NC3=O)cc2)cc1.O=C(O)C(F)(F)F` (single isomer, unassigned; isomer a) [Example 14, Trifluoroacetate of 1-[4-[(2-Aminoethyl)amino]N2-[[4′-(octyloxy)[1.1′-biphenyl]4-yl]carbonyl]-L-ornithine]4-[4-(4-hydroxyphenyl)-L-threonine]-5-L Serine Echinocandin B (Isomer A)], for which the “Inhibition” value is on record as “good activity”.

Take “Trifluoroacetate of 1-[4-[(2-Aminoethyl)amino]-N2-(12-methyl-1-oxotetradecyl)-L-ornithine]4-[4-(4-hydroxyphenyl)-L-threonine]-5-L Serine Echinocandin B (Isomer A and Isomer B) [Example 9]”: the “Inhibition” value is recorded as “good activity”.
